One test relates to WI-38. Nature of the test: Induction of senescence in human WI-38 cells. In kind it is functional, cell-based.
Test [1] is described as follows: Inhibition of rat liver microsome ACAT. In kind it is microsomes.

Broadly, the IC50 is the concentration that inhibits the measured activity by half. Higher therefore signals a need for much substance. For `CC(C)CNC(=O)/C=C/C=C/CCCCCC/C=C/c1ccc2c(c1)OCO2` [GUINEENSINE], the IC50 in the test on WI-38 was found to be 8.9 µM; in test [1], 3 µM. Compound `CC(C)CNC(=O)/C=C/C=C/CCCC/C=C/c1ccc2c(c1)OCO2` [RETROFRACTAMIDE B] had an IC50 in the test on WI-38 of 2 µM. `O=C(/C=C/C=C/CC/C=C/c1ccc2c(c1)OCO2)N1CCCCC1` [DEHYDROPIPERNOLINE]: the IC50 was determined as 2.1 µM in the test on WI-38 and 90 µM in test [1]. Compound `COc1cc(/C=C/C(=O)N2CCC=CC2=O)cc(OC)c1OC` [PIPLARTINE] returned an IC50 in the test on WI-38 of 8 µM. For `CCCCC/C=C/C=C/C(=O)NCC(C)C` [PELLITORIN], the half-inhibitory concentration (IC50) with WI-38 was found to be 0.67 µM.

`O=C(/C=C/C=C/c1ccc2c(c1)OCO2)N1CCCCC1` [PIPERINE] yielded an IC50 in the test on WI-38 of 8.8 µM.

The values above are taken from ChEMBL document CHEMBL5344448, “Amide Alkaloids as Privileged Sources of Senomodulators for Therapeutic Purposes in Age-Related Diseases” (J Nat Prod, 2024).
